Assays:
bedstraw = assay: Test B pre/postemergence bedstraw; assay type: in vivo, Galium aparine
How it was run: (§1)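 Test chemicals in a non-phytotoxic solvent mixture with surfactant were sprayed preemergence onto planted seeds and postemergence onto plants 2 to 18 cm tall (1- to 4-leaf stage). After twelve to sixteen days in a greenhouse, injury was visually rated against untreated controls from 0 (no effect) to 10 (complete control).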

blackgrass = assay: Test B pre/postemergence blackgrass; assay type: in vivo, Alopecurus myosuroides
How it was run: as §1

surinam grass = assay: Test B pre/postemergence surinam grass; assay type: in vivo, Brachiaria decumbens
How it was run: as §1

cocklebur = assay: Test B pre/postemergence cocklebur; assay type: in vivo, Xanthium strumarium
How it was run: as §1

corn = assay: Test B pre/postemergence corn; assay type: in vivo, Zea mays
How it was run: as §1

crabgrass = assay: Test B pre/postemergence crabgrass; assay type: in vivo, Digitaria sanguinalis
How it was run: as §1

giant foxtail = assay: Test B pre/postemergence giant foxtail; assay type: in vivo, Setaria faberii
How it was run: as §1

rape = assay: Test B pre/postemergence rape; assay type: in vivo, Brassica napus
How it was run: as §1

soybean = assay: Test B pre/postemergence soybean; assay type: in vivo, Glycine max
How it was run: as §1

sugar beet = assay: Test B pre/postemergence sugar beet; assay type: in vivo, Beta vulgaris
How it was run: as §1

velvetleaf = assay: Test B pre/postemergence velvetleaf; assay type: in vivo, Abutilon theophrasti
How it was run: as §1

wheat = assay: Test B pre/postemergence wheat; assay type: in vivo, Triticum aestivum
How it was run: as §1

purple nutsedge = assay: Test B pre/postemergence purple nutsedge; assay type: in vivo, Cyperus rotundus
How it was run: as §1

rice = assay: Test B flood test rice; assay type: in vivo, Oryza sativa
How it was run: (§2)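 Read-out is a visual response score from 0 (no effect) to 10 (complete control), assigned by comparison with untreated controls. Treatment was applied at the 2-leaf stage, and plants stayed in the greenhouse for twelve to sixteen days before scoring.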

smallflower flatsedge = assay: Test B flood test smallflower flatsedge; assay type: in vivo, Cyperus difformis
How it was run: as §2

duck salad = assay: Test B flood test duck salad; assay type: in vivo, Heteranthera limosa
How it was run: as §2

bamyardgrass = assay: Test B flood test barnyardgrass; assay type: in vivo, Echinochloa crus-galli
How it was run: as §2

[1] = Preemergence, Rate 62 g/ha, scale of 0 to 10 where 0 is no effect and 10 is complete control
[2] = Preemergence, Rate 250 g/ha, scale of 0 to 10 where 0 is no effect and 10 is complete control
[3] = Preemergence, Rate 500 g/ha, scale of 0 to 10 where 0 is no effect and 10 is complete control
[4] = Rate 62 g/ha, Postemergence, scale of 0 to 10 where 0 is no effect and 10 is complete control
[5] = Rate 125 g/ha, Postemergence, scale of 0 to 10 where 0 is no effect and 10 is complete control
[6] = Rate 125 g/ha, Preemergence, scale of 0 to 10 where 0 is no effect and 10 is complete control
[7] = Rate 250 g/ha, Postemergence, scale of 0 to 10 where 0 is no effect and 10 is complete control
[8] = Rate 500 g/ha, Postemergence, scale 0 to 10, 0 no effect, 10 complete control
[9] = Rate 62 g/ha, headed Pre-emergence (flood test species), scale 0 to 10 (0 no effect, 10 complete control)
[10] = Rate 125 g/ha, Pre-emergence, flood test species, scale 0 to 10 where 0 is no effect and 10 is complete control
[11] = Rate 250 g/ha, Pre-emergence, flood-test species, scale 0 to 10, 0 is no effect, 10 is complete control
[12] = Rate 500 g/ha, Pre-emergence, flood test species, scale 0 to 10 (0 no effect, 10 complete control)

`CC(C)N(C(=O)n1oc(=O)n(-c2ccsc2)c1=O)c1ccc(F)cc1` [Compound 272] was tested, and the “Bedstraw plant response rating” value (bedstraw; [1]) was 0, the “Bedstraw plant response rating” value (bedstraw; [2]) was 0 and the “Plant response rating, Bedstraw” value (bedstraw; [3]) was 3. For the same molecule, the “Bedstraw plant response rating” value (bedstraw; [4]) was 0, the “Bedstraw plant response rating” value (bedstraw; [5]) was 0 and the “Bedstraw plant response rating” value (bedstraw; [6]) was 0. The “Plant response rating, Bedstraw” value (bedstraw; [7]) was 0, the “Bedstraw plant response rating” value (bedstraw; [8]) was 4 and the “Blackgrass plant response rating” value (blackgrass; [1]) was 0. For the same molecule, the “Blackgrass plant response rating” value (blackgrass; [2]) was 0, the “Plant response rating, Blackgrass” value (blackgrass; [3]) was 0 and the “Blackgrass plant response rating” value (blackgrass; [4]) was 0. For the same molecule, the “Blackgrass plant response rating” value (blackgrass; [5]) was 0, the “Blackgrass plant response rating” value (blackgrass; [6]) was 0 and the “Plant response rating, Blackgrass” value (blackgrass; [7]) was 2. The “Blackgrass plant response rating” value (blackgrass; [8]) was 6, the “B. signalgrass plant response rating” value (surinam grass; [1]) was 0 and the “B. signalgrass plant response rating” value (surinam grass; [2]) was 0. The “Plant response rating, B. signalgrass” value (surinam grass; [3]) was 0, the “B. signalgrass plant response rating” value (surinam grass; [4]) was 0 and the “B. signalgrass plant response rating” value (surinam grass; [5]) was 0. For the same molecule, the “B. signalgrass plant response rating” value (surinam grass; [6]) was 0, the “Plant response rating, B. signalgrass” value (surinam grass; [7]) was 0 and the “B. signalgrass plant response rating” value (surinam grass; [8]) was 0. For the same molecule, the “Cocklebur plant response rating” value (cocklebur; [1]) was 0, the “Cocklebur plant response rating” value (cocklebur; [2]) was 0 and the “Plant response rating, Cocklebur” value (cocklebur; [3]) was 0. For the same molecule, the “Cocklebur plant response rating” value (cocklebur; [4]) was 0, the “Cocklebur plant response rating” value (cocklebur; [5]) was 0 and the “Cocklebur plant response rating” value (cocklebur; [6]) was 0. The “Plant response rating, Cocklebur” value (cocklebur; [7]) was 1, the “Cocklebur plant response rating” value (cocklebur; [8]) was 1 and the “Corn plant response rating” value (corn; [1]) was 0. For the same molecule, the “Corn plant response rating” value (corn; [2]) was 0, the “Plant response rating, Corn” value (corn; [3]) was 0 and the “Corn plant response rating” value (corn; [4]) was 0. For the same molecule, the “Corn plant response rating” value (corn; [5]) was 0, the “Corn plant response rating” value (corn; [6]) was 0 and the “Plant response rating, Corn” value (corn; [7]) was 0. For the same molecule, the “Corn plant response rating” value (corn; [8]) was 0, the “Crabgrass plant response rating” value (crabgrass; [1]) was 0 and the “Crabgrass plant response rating” value (crabgrass; [2]) was 0. For the same molecule, the “Plant response rating, Crabgrass” value (crabgrass; [3]) was 2, the “Crabgrass plant response rating” value (crabgrass; [5]) was 0 and the “Crabgrass plant response rating” value (crabgrass; [6]) was 0. For the same molecule, the “Plant response rating, Crabgrass” value (crabgrass; [7]) was 0, the “Crabgrass plant response rating” value (crabgrass; [8]) was 0 and the “Giant foxtail plant response rating” value (giant foxtail; [1]) was 2. The “Giant foxtail plant response rating” value (giant foxtail; [2]) was 6, the “Plant response rating, Giant foxtail” value (giant foxtail; [3]) was 6 and the “Giant foxtail plant response rating” value (giant foxtail; [5]) was 0. For the same molecule, the “Giant foxtail plant response rating” value (giant foxtail; [6]) was 5, the “Plant response rating, Giant foxtail” value (giant foxtail; [7]) was 0 and the “Giant foxtail plant response rating” value (giant foxtail; [8]) was 0. For the same molecule, the “Rape plant response rating” value (rape; [1]) was 0, the “Rape plant response rating” value (rape; [2]) was 0 and the “Plant response rating, Rape” value (rape; [3]) was 0. The “Rape plant response rating” value (rape; [5]) was 0, the “Rape plant response rating” value (rape; [6]) was 0 and the “Plant response rating, Rape” value (rape; [7]) was 0. The “Rape plant response rating” value (rape; [8]) was 0, the “Soybean plant response rating” value (soybean; [1]) was 0 and the “Soybean plant response rating” value (soybean; [2]) was 0. The “Plant response rating, Soybean” value (soybean; [3]) was 0, the “Soybean plant response rating” value (soybean; [5]) was 1 and the “Soybean plant response rating” value (soybean; [6]) was 0. The “Plant response rating, Soybean” value (soybean; [7]) was 1, the “Soybean plant response rating” value (soybean; [8]) was 1 and the “Sugarbeets plant response rating” value (sugar beet; [1]) was 0. For the same molecule, the “Sugarbeets plant response rating” value (sugar beet; [2]) was 0, the “Plant response rating, Sugarbeets” value (sugar beet; [3]) was 0 and the “Sugarbeets plant response rating” value (sugar beet; [5]) was 0. For the same molecule, the “Sugarbeets plant response rating” value (sugar beet; [6]) was 0, the “Plant response rating, Sugarbeets” value (sugar beet; [7]) was 0 and the “Sugarbeets plant response rating” value (sugar beet; [8]) was 0. For the same molecule, the “Velvetleaf plant response rating” value (velvetleaf; [1]) was 0, the “Velvetleaf plant response rating” value (velvetleaf; [2]) was 0 and the “Plant response rating, Velvetleaf” value (velvetleaf; [3]) was 0. The “Velvetleaf plant response rating” value (velvetleaf; [5]) was 0, the “Velvetleaf plant response rating” value (velvetleaf; [6]) was 0 and the “Plant response rating, Velvetleaf” value (velvetleaf; [7]) was 0. The “Velvetleaf plant response rating” value (velvetleaf; [8]) was 0, the “Wheat plant response rating” value (wheat; [1]) was 0 and the “Wheat plant response rating” value (wheat; [2]) was 0. The “Plant response rating, Wheat” value (wheat; [3]) was 0, the “Wheat plant response rating” value (wheat; [5]) was 0 and the “Wheat plant response rating” value (wheat; [6]) was 0. The “Plant response rating, Wheat” value (wheat; [7]) was 0, the “Wheat plant response rating” value (wheat; [8]) was 0 and the “Nutsedge plant response rating” value (purple nutsedge; [1]) was 0. For the same molecule, the “Nutsedge plant response rating” value (purple nutsedge; [2]) was 0, the “Plant response rating, Nutsedge” value (purple nutsedge; [3]) was 0 and the “Nutsedge plant response rating” value (purple nutsedge; [5]) was 0. The “Nutsedge plant response rating” value (purple nutsedge; [6]) was 0, the “Plant response rating, Nutsedge” value (purple nutsedge; [7]) was 0 and the “Nutsedge plant response rating” value (purple nutsedge; [8]) was 0. For the same molecule, the “Rice plant response rating” value (rice; [9]) was 0, the “Rice plant response rating” value (rice; [10]) was 0 and the “Rice plant response rating” value (rice; [11]) was 0. For the same molecule, the “Rice plant response rating” value (rice; [12]) was 0, the “S. Flatsedge plant response rating” value (smallflower flatsedge; [9]) was 0 and the “S. Flatsedge plant response rating” value (smallflower flatsedge; [10]) was 0. The “S. Flatsedge plant response rating” value (smallflower flatsedge; [11]) was 0, the “S. Flatsedge plant response rating” value (smallflower flatsedge; [12]) was 0 and the “Ducksalad plant response rating” value (duck salad; [9]) was 0. The “Ducksalad plant response rating” value (duck salad; [10]) was 0, the “Ducksalad plant response rating” value (duck salad; [11]) was 0 and the “Ducksalad plant response rating” value (duck salad; [12]) was 0. The “Barnyardgrass plant response rating” value (bamyardgrass; [9]) was 0, the “Barnyardgrass plant response rating” value (bamyardgrass; [10]) was 0 and the “Barnyardgrass plant response rating” value (bamyardgrass; [11]) was 0. For the same molecule, the “Barnyardgrass plant response rating” value (bamyardgrass; [12]) was 0.
